Laboratory results reported in patent US11952363B2, “Piperazine compounds for the treatment of autoimmune disease” (Hoffmann-La Roche Inc., priority 2018, dated 2024).

Legend:
human TLR9 = molecular target: T1, human TLR9 (Homo sapiens, UniProt Q9NR96); assay: HEK293-Blue-hTLR-9 cells assay (SEAP reporter, ODN2006 stimulation); format: cell-based; settings: HEK293-Blue-hTLR9 cells, ODN2006 ligand, 20 hrs incubation; read-out: HEK/hTLR9 IC50
T1 sequence (Q9NR96 26-1032): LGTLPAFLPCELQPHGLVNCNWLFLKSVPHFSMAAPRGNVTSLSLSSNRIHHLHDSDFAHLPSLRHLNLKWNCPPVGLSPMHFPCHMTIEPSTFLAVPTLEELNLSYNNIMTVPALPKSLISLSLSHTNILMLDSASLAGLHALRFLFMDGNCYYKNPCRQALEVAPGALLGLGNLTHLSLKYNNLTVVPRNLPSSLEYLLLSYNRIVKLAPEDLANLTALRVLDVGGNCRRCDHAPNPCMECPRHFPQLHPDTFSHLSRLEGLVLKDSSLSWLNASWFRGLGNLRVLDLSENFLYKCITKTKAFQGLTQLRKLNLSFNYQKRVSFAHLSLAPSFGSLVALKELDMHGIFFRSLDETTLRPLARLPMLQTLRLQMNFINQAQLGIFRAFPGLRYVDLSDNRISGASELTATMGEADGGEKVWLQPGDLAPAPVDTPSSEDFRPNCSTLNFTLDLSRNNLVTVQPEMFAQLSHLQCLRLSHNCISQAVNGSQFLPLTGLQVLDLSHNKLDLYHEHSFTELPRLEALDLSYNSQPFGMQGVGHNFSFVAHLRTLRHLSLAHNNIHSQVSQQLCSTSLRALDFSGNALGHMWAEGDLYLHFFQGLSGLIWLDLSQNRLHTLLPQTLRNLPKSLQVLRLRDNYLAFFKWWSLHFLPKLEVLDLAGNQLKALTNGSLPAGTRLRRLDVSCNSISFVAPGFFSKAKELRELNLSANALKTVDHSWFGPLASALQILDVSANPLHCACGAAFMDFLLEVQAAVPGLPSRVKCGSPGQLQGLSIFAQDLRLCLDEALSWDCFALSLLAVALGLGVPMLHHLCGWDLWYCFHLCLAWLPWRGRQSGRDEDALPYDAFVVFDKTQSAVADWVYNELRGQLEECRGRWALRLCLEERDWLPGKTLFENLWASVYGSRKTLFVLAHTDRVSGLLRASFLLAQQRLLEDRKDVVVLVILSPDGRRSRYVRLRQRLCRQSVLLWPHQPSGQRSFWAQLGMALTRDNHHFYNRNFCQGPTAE
Experimental: The following tests were carried out in order to determine the activity of the compounds of formula (I) in HEK293-Blue-hTLR-7/8/9 cells assay.
A stable HEK293-Blue-hTLR-9 cell line was purchased from InvivoGen (Cat.#: hkb-htlr9, San Diego, California, USA). These cells were originally designed for studying the stimulation of human TLR9 by monitoring the activation of NF-κB. A SEAP (secreted embryonic alkaline phosphatase) reporter gene was placed under the control of the IFN-β minimal promoter fused to five NF-κB and. AP-1-binding sites. The SEAP was induced by activating NF-κB and AP-1 via stimulating HEK-Blue hTLR9 cells with TLR9 ligands. Therefore the reporter expression was declined by TLR9 antagonist under the stimulation of a ligand, such as ODN2006 (Cat.#: tlr1-2006-1, Invivogen, San Diego, California, USA), for incubation of 20 his. The cell culture supernatant SEAP reporter activity was determined using QUANTI-Blue™ kit (Cat.#: rep-qb1, Invivogen, San Diego, California, USA) at a wavelength of 640 nm, a detection medium that turns purple or blue in the presence of alkaline phosphatase.
HEK293-Blue-hTLR9 cells were incubated at a density of 250,000-450,000 cells/mL in a volume of 170 μL in a 96-well plate in Dulbecco's Modified Eagle's medium (DMEM) containing 4.5 g/L glucose, 50 U/mL penicillin, […], […], 2 mM L-glutamine, 10% (v/v) heat-inactivated fetal bovine serum with addition of 20 μL test compound in a serial dilution in the presence of final DMSO at 1% and 10 p L of 20uM ODN2006 in above DMEM, perform incubation under 37° C. in a CO2 incubator for 20 hrs. Then 20 μL of the supernatant from each well was incubated with 180 μL Quanti-blue substrate solution at 37° C. for 2 h and the absorbance was read at 620˜655 nm using a spectrophotometer. The signaling pathway that TLR9 activation leads to downstream NF-κB activation has been widely accepted, and therefore similar reporter assay was modified for evaluating TLR9 antagonist.

CYP2D6 = molecular target: T2, CYP2D6 (Homo sapiens, UniProt P10635); assay: CYP inhibition assay in human liver microsome; format: in vitro ADME; settings: liver microsomes, probe dextromethorphan, 10 μM compound, dextromethorphan substrate, percentage inhibition < 0: not or weak inhibitor, read-out: CYP 2D6 inhibition % @10 μM
T2 construct: tissue BD-Gentest 452117; host or cells: human liver microsomes
Experimental: This is a high throughput screening assay used for assessment of reversible inhibition of CYP2D6 activity of test compounds in human liver microsome (HLM) in early discovery stage.
10 mM DMSO stock solutions of test compounds were diluted in DMSO to generate 2 mM intermediate stock solution. 250 nL of intermediate stock solution were transferred in duplicate into 3 separate 384 well microtitre plates (assay-ready plates). A mixture of HLM and each substrate was made up. 45 μL of HLM substrate mix was then transferred to each well of an assay ready plate and mixed. The negative (solvent) and positive control (standard inhibitor for CYP 2D6) were included in each assay ready plate. The assay ready plate was warmed to 37° C. in an incubator over 10 minutes. 5μL pre-warmed NADPH regenerating system was added to each incubation well to start the reaction. Final incubation volume was 50 μL. The assay plate then was placed back in the 37° C. incubator. After 10 minutes incubation, incubates were quenched by addition of 50 μL 100% acetonitrile containing internal standards (20 ng/mL D3-Dextrorphan). The supernatants were collected for RapidFire/MS/MS analysis.
RapidFire online solid phase extraction/sample injection system (Agilent) coupled with API4000 triple quadrupole mass spectrometer (AB Sciex) were used for sample analysis. The mobile phase composed of acetonitrile and water supplemented with 0.1% formic acid. A C4 solid phase extraction cartridge is used for sample separation. MS detection is achieved in positive ion MRM mode.
Peak areas for substrate, metabolite and internal standard are determined using the RapidFire integrator software (version 3.6.12009.12296). Peak area ratios (PAR) of metabolite and internal standard (stable-labelled metabolite) are then calculated. The measurement window for each experiment is then defined:
PAR (0% activity)=average PAR for all incubations containing concentrated inhibitor;
Par (100% activity)=average PAR for all incubations containing no inhibitor (DMSO controls);
% Activity (test inhibitor)
=[PAR(test inhibitor)-PAR(0% activity)]/[PAR(100% activity)-PAR(0% activity)];
% Inhibition (test inhibitor)=100-% Activity (test inhibitor).

T2 sequence (P10635 whole entry): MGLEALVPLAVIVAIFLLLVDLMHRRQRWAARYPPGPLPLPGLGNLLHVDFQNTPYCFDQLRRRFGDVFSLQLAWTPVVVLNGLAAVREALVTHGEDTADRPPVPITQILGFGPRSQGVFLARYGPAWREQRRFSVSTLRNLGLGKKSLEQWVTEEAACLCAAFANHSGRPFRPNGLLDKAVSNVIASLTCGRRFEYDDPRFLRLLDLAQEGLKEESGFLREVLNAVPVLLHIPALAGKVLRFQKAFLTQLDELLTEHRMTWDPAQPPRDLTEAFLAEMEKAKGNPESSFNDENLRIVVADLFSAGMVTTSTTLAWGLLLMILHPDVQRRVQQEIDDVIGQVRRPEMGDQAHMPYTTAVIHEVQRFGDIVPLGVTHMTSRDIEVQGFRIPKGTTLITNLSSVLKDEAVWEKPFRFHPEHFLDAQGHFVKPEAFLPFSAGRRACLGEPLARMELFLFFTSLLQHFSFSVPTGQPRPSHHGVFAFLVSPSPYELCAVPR

IC50 (human TLR9) [µM]	inhibition at 10 min, 10 µM (CYP2D6) [%]	Structure (SMILES)
0.132	–	C[C@@H]1CN(c2ccc(C#N)c3ncccc23)C[C@H](C)N1CC(=O)N1CCc2nc(N3CCNCC3)ccc2C1 [Example 13, 5-[(3R,5S)-3,5-Dimethyl-4-[2-oxo-2-(2-piperazin-1-yl-7,8-dihydro-5H-1,6-naphthyridin-6-yl)ethyl]piperazin-1-yl]quinoline-8-carbonitrile]
0.094	19	C[C@@H]1CN(c2ccc(C#N)c3ncccc23)C[C@H](C)N1CC(=O)N1CCc2ccc(N3CCNCC3)cc2C1 [Example 15, 5-[(3R,5S)-3,5-dimethyl-4-[2-pxp-2-(7-piperazin-1-yl-3,4-dihydro-1H-isoquinolin-2-yl)ethyl]piperazin-1-yl]quinoline-8-carbonitrile]
0.116	14.5	CC1CN(c2ccc(C#N)c3ncccc23)CCN1CC(=O)N1CCC(C2CCN(C)CC2)CC1 (stereo not shown) [Example 19, 5-[3-methyl-4-[2-[4-(1-methyl-4-piperidyl)-1-piperidyl]-2-oxo-ethyl]piperazin-1-yl]quinoline-8-carbonitrile]
0.137	–	C[C@@H]1CN(c2ccc(C#N)c3ncccc23)C[C@H](C)N1Cc1ncc(N2CCNCC2)cn1 [Example 4, 5-[(3S,5R)-3,5-Dimethyl-4-[(5-piperazin-1-ylpyrimidin-2-yl)methyl]piperazin-1-yl]quinoline-8-carbonitrile]
0.041	4.5	C[C@@H]1CN(c2ccc(C#N)c3ncccc23)C[C@H](C)N1Cc1ccc(N2CCN(C(=O)C3CCCN3)CC2)cn1 (stereo partly drawn) [Example 10, 5-[(3R,5S)-3,5-Dimethyl-4-[[5-[4-(pyrrolidine-2-carbonyl)piperazin-1-yl]-2-pyridyl]methyl]piperazin-1-yl]quinoline-8-carbonitrile]
0.047	-6.5	C[C@@H]1CN(c2ccc(C#N)c3ncccc23)C[C@H](C)N1Cc1ccc(N[C@@H]2CNC[C@@H]2F)cn1 [Example 9, 5-[(3R,5S)-3,5-Dimethyl-4-[[5-[[(3R,4S)-4-fluoropyrrolidin-3-yl]amino]-2-pyridyl]methyl]piperazin-1-yl]quinoline-8-carbonitrile]
0.12	–	C[C@@H]1CN(c2ccc(C#N)c3ncccc23)C[C@H](C)N1Cc1ccc(N2CCN(C)CC2)cn1 [Example 7, 5-[(3S,5R)-3,5-dimethyl-4-[[5-(4-methylpiperazin-1-yl)-2-pyridyl]methyl]piperazin-1-yl]quinoline-8-carbonitrile]
0.084	5.5	C[C@@H]1CN(c2ccc(C#N)c3ncccc23)C[C@H](C)N1Cc1ccc(N2CCNCC2)cn1 [Example 5, 5-[(3S,5R)-3,5-Dimethyl-4-[(5-piperazin-1-yl-2-pyridyl)methyl]piperazin-1-yl]quinoline-8-carbonitrile]
0.139	5	C[C@@H]1CN(c2ccc(C#N)c3ncccc23)C[C@H](C)N1Cc1ncc(N2CCN(C(=O)CN(C)C)CC2)cn1 [Example 6, 5-[(3S,5R)-4-[[5-[4-[2-(Dimethylamino)acetyl]piperazin-1-yl]pyrimidin-2-yl]methyl]-3,5-dimethyl-piperazin-1-yl]quinoline-8-carbonitrile]
0.116	–	C[C@@H]1CN(c2ccc(C#N)c3ncccc23)C[C@H](C)N1CC(=O)N1CCc2cc(N3CCNCC3)ccc2C1 [Example 14, 5-[(3R,5S)-3,5-Dimethyl-4-[2-oxo-2-(6-piperazin-1-yl-3,4-dihyrdo-1H-isoquinolin-2-yl)ethyl]piperazin-1-yl]quinoline-8-carbonitrile]
0.119	12.5	CC1CN(c2ccc(C#N)c3ncccc23)CCN1CC(=O)Nc1ccc2c(c1)CCNC2 (stereo not shown) [Example 18, 2-[4-(8-Cyano-5-quinolyl)-2-methyl-piperazin-1yl]-N-(1,2,3,4-tetrahydroisoquinolin-6-yl)acetamide]
0.073	12.5	C[C@@H]1CN(c2ccc(C#N)c3ncccc23)C[C@H](C)N1Cc1ccc(N2CC3CNCC(C2)O3)cn1 [Example 8, 5-[(3S,5R)-3,5-Dimethyl-4-[[5-(9-oxa-3,7-diazabicyclo[3.3.1]nonan-3-yl)-2-pyridyl]methyl]piperazin-1-yl]quinoline-8-carbonitrile]
0.093	-2.5	C[C@@H]1CN(c2ccc(C#N)c3ncccc23)C[C@H](C)N1Cc1ccc(N2CCNCC2)nc1 [Example 3, 5-[(3R,5S)-3,5-Dimethyl-4-[(6-piperazin-1-yl-3-pyridyl)methyl]piperazin-1-yl]quinoline-8-carbonitrile]
0.103	7	CC1CN(c2ccc(C#N)c3ncccc23)CCN1CC(=O)Nc1ccc(N2CCNCC2)cc1 (stereo not shown) [Example 17, 2-[4-(8-Cyano-5-quinolyl)-2-methyl-piperazin-1-yl]-N-(4-piperazin-1-ylpheny)acetamide]
0.096	23	C[C@@H]1CN(c2ccc(C#N)c3ncccc23)C[C@H](C)N1Cc1ccc(N2CCN(C(=O)CN(C)C)CC2)cn1 [Example 11, 5-[(3S,5R)-4-[[5-[4-[2-(Dimethylamino)acetyl]piperazin-1-yl]-2-pyridyl]methyl]-3,5-dimethyl-piperazin-1-yl]quinoline-8-carbonitrile]
0.065	–	C[C@@H]1CN(c2ccc(C#N)c3ncccc23)C[C@@H](C)N1Cc1ccc(N2CCNCC2)cc1 [Example 2]
0.06	–	C[C@@H]1CN(c2ccc(C#N)c3ncccc23)C[C@H](C)N1Cc1ccc(N2CCNCC2CO)cc1 (stereo partly drawn) [Example 12, 5-[(3R,5S)-4-[[4-[2-(Hydroxymethyl)piperazin-1-yl]phenyl]methyl]-3,5-dimethyl-piperazin-1-yl]quinoline-8-carbonitrile]
